The values below come from US20200289521A1, “USE OF VITAMIN K IN COMBINATION WITH ANTICOAGULANTS” (KAYDENCE PHARMA AS, priority 2019, published 2020).

For data set [1], the system named is VSMCs. Briefly: Hypoxia (CoCl2) induced oxidative stress in VSMCs (DCFDA). It counts as cell-based. Here is the method: This study was performed to determine whether intracellular oxidative stress in VSCMs is derived from mitochondrial dysfunction. To perform this study, VSMCs were incubated with cobalt chloride, a known stabilizer of HIF1a. Cobalt chloride binding to HIF1a prevents the degradation of HIF1a and thus results in a cellular hypoxia state. HIF1a has been implicated in cancer biology as well as a number of other pathophysiologies, specifically in areas of vascularization and angiogenesis, energy metabolism, cell survival, and tumor invasion. Under normal circumstances, after injury, HIF1a is degraded by the enzyme prolyl hydroxylase (PHD). The continued up-regulation of HIF1a (mimicked by cobalt chloride) promotes tumor growth and metastasis through its role in initiating angiogenesis and regulating cellular metabolism to overcome hypoxia. Hypoxia promotes apoptosis in both normal and tumor cells. Additionally, hypoxia generates significant intracellular oxidative stress.
To perform the study, VSMCs (10,000 cells/well) were plated in a 96-well plate and left to adhere overnight. Next, the medium was changed to a medium supplemented with 50 μM CoCl2 for 19 hours. The next day, cells were washed and incubated for 1 hour with 20 μM DCFDA in the presence of a vehicle (solvent for CoCl2 and vitamin K2 (MK-7)/UQ10), 10 μM vitamin K2 (MK-7), or 10 μM UQ10 in medium. The medium was then changed to a medium supplemented with vehicle, vitamin K2 (MK-7)/UQ10, or CoCl2, and fluorescent was measured for 6 hours. Fluorescence intensity was normalized for cell count.

Data set [2] has as its system VSMCs. Briefly: ATP increase in VSMCs, 48 hours, with CoCl2 arm (luminescence). The data set is classed as cell-based. The procedure: This study was performed to further investigate the origin of ATP production that is influenced by vitamin K2 (MK-7). To perform this study, VSCMs (5000 cells/well) were plated in 96-well plates and left to adhere overnight. Next, cells were incubated for 48 hours with either vehicle, CoCl2 (100 μM), vitamin K2 (MK-7) (10 μM), or UQ10 (10 μM). Hoechst was added to correct for cell number (1 μg/mL). Next, ATP was measured using mammalian lysis buffer for 5 minutes, after which 50 μL ATP substrate solution was added to the wells and incubated for 10 minutes in a dark environment. Finally, medium was transferred to a white plate to measure luminescence.

For data set [3], the system named is whole-blood thrombogenicity. Kind of data set: T-TAS Total Thrombus-formation Analysis of whole blood from treated TGR rats. Particulars: for AUC: area under flow pressure curve for 30 min, dabigatran 7.5, rivaroxaban 5.0, MK-7 1.5 mg/kg/day; for AUC / OT (time, min) / T10 (time, min): two weeks in diet; for OT (time, min) / T10 (time, min): dabigatran 7.5, rivaroxaban 5.0, vitamin K2 (MK-7) 1.5 mg/kg/day. The data set is classed as in vivo, transgenic Ren-2 rats [TGR(mREN-2)27]. Here is the method: (§1) This experiment was conducted in order to evaluate the effects of vitamin K2 (MK-7) on the anticoagulant activity of the new oral anticoagulants (NOAC) rivaroxaban and dabigatran using the T-TAS Total Thrombus-formation Analysis System. The T-TAS Total Thrombus-formation Analysis System is a microchip-based flow chamber system capable of evaluating whole-blood thrombogenicity. It is a useful tool in monitoring the efficacy of anticoagulants on thrombus formation and predicting the risk of bleeding complications. To perform the study, 45 wild-type male Sprague-Dawley and 45 transgenic male Ren-2 rats [TGR(mREN-2)27] at the age of 10-11 weeks at the beginning of the treatment period were purchased from animal facility IKEM-CEM Institute of Clinical and Experimental Medicine (Prague, Czech Republic). All animals in the experiment were housed in individually ventilated cages (2-3 rats per cage) and kept in the animal rooms of JCET at a relative humidity of 55±10%, a temperature of 22±2° C., and a light cycle of 7 AM to 7 PM. The rats had free access to food and water. After delivery, animals were randomly divided into 10 experimental groups (5 or 10 rats per group), as indicated below in Table 1. Four days before the start of the treatment, the first part of animals' body weight and food intake was measured in selected representative three cages (rats n=9) to calculate the appropriate amount of tested compounds required for addition to the diet to obtain the dosing indicated in Table 1. It was estimated that food intake was approximately 30 g of chow per rat per day. The animals were fed for two weeks with AIN-93G diet supplemented with rivaroxaban or dabigatran with/without Vitamin K2 (MK-7), as indicated in Table 1. The animals were then anesthetized in order to draw blood samples for further analysis. The body mass of the rats was measured at the beginning and at the end of treatment. At the beginning and at the end of treatment, the food intake per day was measured in representative group of animals to monitor the daily dosing of tested compounds (per kg of body mass). The thrombus formation in vitro was measured in whole blood using a microchip-based flow chamber system according to manufacturers' protocol (Total Thrombus-formation Analyser System, T-TAS; Fujimori Kogyo Co., Ltd., Tokyo, Japan). For the analysis, citrated whole blood (480 μl) was mixed with 20 μl of 300 mM CaCl2 solution containing 1.25 mg/ml CTI (Corn Trypsin Inhibitor). […] The obtained flow pressure pattern for each sample was used to analyze thrombus formation based on the following estimated parameters: […]

Data set [4] has as its system whole-blood thrombogenicity. Briefly: T-TAS Total Thrombus-formation Analysis of whole blood from treated Sprague-Dawley rats. To be noted: for AUC: area under flow pressure curve for 30 min, dabigatran 7.5, rivaroxaban 5.0, MK-7 1.5 mg/kg/day; for AUC / OT (time, min) / T10 (time, min): two weeks in diet; for OT (time, min) / T10 (time, min): dabigatran 7.5, rivaroxaban 5.0, vitamin K2 (MK-7) 1.5 mg/kg/day. It counts as in vivo. The procedure:
as §1

Data set [5] has as its system VSMCs. Kind of data set: ATP increase in VSMCs, 24 hours (luminescence). It counts as cell-based. To be noted: 10 μM. The procedure: This study was performed to determine if vitamin K2 (MK-7) affects ATP generation. ATP is generated via glycolysis in the cytoplasm and via both the Krebs-cycle and oxidative phosphorylation in the mitochondria. ATP generation via glycolysis delivers only 2 ATP, whereas ATP generation in the mitochondria generates some 32 ATP.
To perform this study, VSCMs (5000 cells/well) were plated in 96-well plates and left to adhere overnight. Next, cells were incubated for 24 hours with either vehicle, vitamin K2 (MK-7) (10 μM), or UQ10 (10 μM). Hoechst was added to correct for cell number (1 μg/mL). Next, ATP was measured using mammalian lysis buffer for 5 minutes after which 50 μL ATP substrate solution was added to the wells and incubated for 10 minutes in a dark environment. Finally, the medium was transferred to a white plate to measure luminescence

Data set [6] relates to VSMCs. Briefly: Warfarin-induced oxidative stress in VSMCs, warfarin concentration series (DCFDA). It counts as cell-based. Particulars: warfarin 10 to 100 μM, fluorescence over 6 hours. The procedure: It is known that the level of reactive oxygen species in cells can be measured by measuring the conversion of 2′,7′-dichlorofluorescein diacetate (DCFDA) to the fluorescent dye 2′,7′-dichlorofluorescein (DCF). The fluorescence generated by cells subjected to DCFDA is directly proportional to the amount of oxidized DCFDA to DCF.
In this study, vitamin K metabolism was blocked using the vitamin K-antagonist warfarin. The study was conducted to investigate whether interference with vitamin K metabolism would cause intracellular oxidative stress. To perform the study, VSMCs (10,000 cells/well) were plated in 96-well plates and left to adhere overnight. Next, cells were incubated for 1 hour with 20 μM DCFDA. The medium was then changed to a medium supplemented with different concentrations of warfarin ranging from 10 to 100 μM, and fluorescence intensity was measured over 6 hours. Fluorescence was normalized for number of cells.

Data set [7] concerns human vascular smooth muscle cells (hVSMCs). Kind of data set: ATP measurement in hVSMCs with warfarin and/or vitamin K2 (luminescence). The data set is classed as cell-based. Particulars: 24 hours; warfarin 10 or 50 μM, vitamin K2 (MK-7) 10 μM. Here is the method:
This study was performed in order to determine the effect of vitamin K2 (MK-7) on warfarin-induced oxidative stress in muscles. To perform this study, human vascular smooth muscle cells (hVSMCs; 5,000 cells/well) were plated in 96-well dark plates and left to adhere overnight. Next, cells were incubated for 24 hours with either vehicle only (as blank control), warfarin (10 or 50 μM), vitamin K2 (MK-7) (10 μM), or a combination of warfarin (50 μM) and vitamin K2 (MK-7) (10 μM). Hoechst was added to correct for cell number (1 μg/mL). Next, ATP was measured using mammalian lysis buffer for 5 minutes after which 50 μL ATP substrate solution was added to the wells and incubated for 10 minutes in a dark environment. Finally, medium was transferred to a white plate to measure luminescence.

Consider `[Cl][Co][Cl]` [CoCl2, cobalt chloride], for which the “oxidative stress induced by the hypoxia inducer” value with VSMCs [1] (50 μM CoCl2) was “induces increased oxidative stress”. Moreover, the “ATP production compared to vehicle” value in the data set with VSMCs [2] (CoCl2 100 μM, vitamin K2 (MK-7) 10 μM) is listed as “decreased ATP production”.
Consider `[H]/N=C(/N)c1ccc(NCc2nc3cc(C(=O)N(CCC(=O)O)c4ccccn4)ccc3n2C)cc1` [Dabigatran], for which, in data set [3], the AUC is 1898 ± 80.66; the “OT (time, min)” value worked out at 8.011 ± 1.317 min; the “T10 (time, min)” value is given as 4.780 ± 0.7073 min. In data set [4], the AUC came to 2039 ± 32.5; the “OT (time, min)” value stood at 5.753 ± 0.587 min; the “T10 (time, min)” value is 3.386 ± 0.237 min.
For `O=C(NC[C@H]1CN(c2ccc(N3CCOCC3=O)cc2)C(=O)O1)c1ccc(Cl)s1` [Rivaroxaban], the thrombus formation result was “also inhibited thrombus formation” in data set [3] (anticoagulant alone) and “inhibited thrombus formation” in data set [4] (anticoagulant alone). For the same compound, the AUC in data set [3] came to 1876 ± 91.28; in data set [4], 2011 ± 28.7. In addition, the “OT (time, min)” value in data set [3] was 8.324 ± 1.578 min; in data set [4] it was 6.133 ± 0.518 min. In addition, the figures for the “T10 (time, min)” value in data set [3] and in data set [4] were 4.996 ± 0.8216 min and 3.732 ± 0.266 min, respectively.
On to `COC1=C(OC)C(=O)C(C/C=C(\C)CC/C=C(\C)CC/C=C(\C)CC/C=C(\C)CC/C=C(\C)CC/C=C(\C)CC/C=C(\C)CC/C=C(\C)CC/C=C(\C)CCC=C(C)C)=C(C)C1=O` [UQ10], for which, in the data set with VSMCs [1] (50 μM CoCl2 for 19 hours, test substance 10 μM, 6 hours), the “hypoxia induced oxidative stress” value is given as “This effect was not found”. Moreover, the “ATP levels compared to CoCl2” value in the data set on VSMCs [2] (10 μM vs CoCl2 100 μM) is listed as “significant higher ATP levels”. Besides, the “ATP production compared to the vehicle” value in the data set on VSMCs [5] was “only vitamin K2 (MK-7) increased ATP production”.
As to `CC(=O)CC(c1ccccc1)c1c(O)c2ccccc2oc1=O` (stereo not drawn) [warfarin], the intracellular oxidative stress result with VSMCs [6] is on record as “did cause intracellular oxidative stress”. The “cell ATP / ATP generation” value in data set [7] is “does not affect ATP generation”.
